Reference: patent publication US20250302306A1, “TUMOR TARGETING PROBE FOR IMAGE GUIDED SURGICAL METHODS” (priority 2021, published 2025)

Key:
TNBC PDX tumors [1] = assay: Detection of residual cancer cells in the tumor margin by huAlu PCR; type: in vivo, NSG mice; settings: equivalent of ICG-p28 0.5 mg/kg i.v., margins at 6 and 12 o'clock
Procedure: During image-guided surgery, tumors with a 2-mm safety margin and the surrounding mammary tissues at the 6 and 12 o'clock positions were removed in real time under guidance of the PDE imaging system (FIG. 6A). These samples were collected to undergo huAlu PCR as well as traditional histological analyses.
Each agent was injected i.v. (tail vein) with the corresponding compound at the equivalent of ICG-p28 0.5 mg/kg-b.w. Twenty-four hours after injection, all surgical procedures were started under sterile conditions. Following anesthesia administration, the PDE imaging system was used to monitor NIR fluorescence throughout the entire surgical procedure. […] After tumor resection, the mice were kept in their cages for an additional four weeks and monitored for tumor recurrence. Tumor recurrence was monitored by palpitation of the surgical area. Four weeks after surgery, the mice were evaluated to determine whether any of the tumors had recurred due to remnant positive margins at the resection site.
A quantitative analysis using human-specific Alu sequence (huAlu) was performed on samples collected from the margins. […] We standardized the quantitative detection of huAlu in resected tumors and surrounding margin tissues according to previously published methods. […] The mean±SD values were calculated.

[2] = test system: multiple breast cancer animal models
TNBC PDX tumors [3] = assay: Tumor recurrence follow-up after image-guided surgery in PDX model; type: in vivo, NSG mice
Procedure: Each agent was injected i.v. (tail vein) with the corresponding compound at the equivalent of ICG-p28 0.5 mg/kg-b.w. Twenty-four hours after injection, all surgical procedures were started under sterile conditions. Following anesthesia administration, the PDE imaging system was used to monitor NIR fluorescence throughout the entire surgical procedure. Tumors with a 2-mm safety margin and the surrounding mammary tissues at the 6 and 12 o'clock positions were removed in real time under guidance of the PDE imaging system. […] Following tumor excision, the skin incisions were closed using a nylon suture, and the mice were returned to their cages. After tumor resection, the mice were kept in their cages for an additional four weeks and monitored for tumor recurrence. Tumor recurrence was monitored by palpitation of the surgical area. Four weeks after surgery, the mice were evaluated to determine whether any of the tumors had recurred due to remnant positive margins at the resection site.

TNBC PDX tumors [4] = assay: Histological analysis (H&E, Ki-67) of tumor margin samples; type: in vivo, NSG mice; settings: H&E and Ki67 staining of margin samples
Procedure: We next performed traditional histological analyses with H&E and proliferative marker Ki67 staining on the set of tumor margin samples that were used for the Alu PCR assays.
Resected tissues were placed in containers prefilled with buffered 3.7% formalin (Anatech) and fixed for 24 hr. Formalin was replaced with 70% ethanol following fixation. Samples were paraffin-embedded, and blocks were cut into 4 μm-thick sections and mounted onto slides. H&E- and Ki-67-stained slides were analyzed by a pathologist blinded to the experimental groups and surgical resection results. The pathologist was responsible for determining a tumor's presence, margin status, and general characteristics of resected tissues.

MDA-MB-231-iRFP tumors = assay: Tumor margin assessment: colocalization with tumor marker iRFP, ex vivo Odyssey scan; type: in vivo, athymic mice; settings: 0.5 mg/kg i.v., 24 hr
Procedure: In FIG. 3B, Athymic mice bearing MDA-MB-231-iRFP tumors were injected i.v. with either ICG-p28 or ICG alone at 0.5 mg/kg. Twenty-four hours after injection, representative ex vivo images of the tumour and surrounding soft tissues for the ICG-p28 group (top row) and the ICG alone group (bottom row) were taken with an Odyssey scanner. The dotted line in the images indicates the outer edge of the soft tissue. iRFP (red: 700 nm); ICG-p28 or ICG (green: 800 nm); and colocalization (yellow-orange). In FIG. 3C, Concordance rate of the fluorescent signal in each group [the ICG-p28 group (n=10) and the ICG alone group (n=5)]; **: P<0.01.
ICG-p28 or ICG alone at 0.5 mg/kg was injected i.v. into athymic mice inoculated with MDA-MB-231-iRFP cells; 24 hr later, the xenografted tumors and surrounding tissues were removed.
MDA-MB-231-iRFP cells (1.0×10^6 cells in 0.1 ml PBS) were inoculated s.c. into the right back of mice. Once mice developed tumors (˜200 mm^3), they were injected i.v. with ICG-p28 or ICG at 0.5 mg/kg-b.w. Twenty-four hours after injection, tumors and the surrounding tissue were resected. Specimens were imaged ex vivo with an Odyssey scanner with the 700 nm channel for iRFP and the 800 nm channel for ICG-p28 or ICG alone. The area measurements were performed using ImageJ. The mean±SD values were calculated.

[5] = ICG as used in clinical practice; cited from earlier work
[6] = test system: MDA-MB-231 human breast cancer tumors; assay: In vivo kinetic analysis: tumor/normal tissue NIR signal ratio (TBR); design: species or system athymic mice
Procedure: Since fluorescent imaging techniques rely on the concentration of each contrast agent, the optimum dose range for ICG-p28 in mice with MDA-MB-231 human breast cancer tumors was determined with the PDE unit. Each mouse was injected i.v. with ICG-p28 or ICG alone at 0.2-1.0 mg/kg (˜50 to 250 nM). The mice were imaged at various time points (6-72 hr), and the ratio of the NIR signal intensity of the tumor tissue and normal tissue (thigh) was calculated.
ICG-p28 or ICG alone was injected intravenously (i.v.) (tail vein) at 0.2, 0.5, or 1 mg/kg-b.w. Animals were imaged using an Odyssey scanner (LI-COR Biosciences) at 6-72 hr post i.v. administration. The tumor background ratio (TBR) was determined using ImageJ software (National Institutes of Health), where a region of interest (ROI) was drawn over the whole tumor and a background ROI was drawn over adjacent tissue. An ROI was manually generated around each tumor (800 nm channel).

[7] = test system: MDA-MB-231 or IOWA-IT orthotopic MFP xenograft tumors; assay: Intraoperative imaging of orthotopic xenografts, tumor recurrence follow-up
[8] = test system: advanced solid tumors; recurrent and refractory CNS tumors; settings: human, in vivo; cited from earlier work

| Compound | log (huAlu DNA/mGAPDH DNA) in surrounding tissues (TNBC PDX tumors [1]) | tumor recurrence rate overall ([2]; multiple models combined, N of 24) | average recurrent tumor volume overall ([2]; multiple subtypes of breast cancer combined) | tumor recurrence rate for the surgical site (TNBC PDX tumors [3]; four weeks after image-guided surgery) | average volume of the recurrent tumors (TNBC PDX tumors [3]; four weeks after surgical resection) | positive margin rate (TNBC PDX tumors [4]) | concordance rate of 700 and 800 nm NIR signals (MDA-MB-231-iRFP tumors) | half-life [5] | tumor/normal tissue ratio of NIR signal intensity ([6]; 0.2-1.0 mg/kg i.v., 24 hr, tumor vs thigh) | TBR ([6]; ICG alone, tumor site not distinguishable) | adverse events related to administration during tumor removal ([7]; 0.5 mg/kg i.v.) | tumor recurrence at the surgical sites ([7]; 0.5 mg/kg i.v., four weeks after tumor resection) | average volume of the recurrent tumors ([7]; four weeks after tumor resection) | adverse effects, toxicity or immunogenicity [8] |
| --- | --- | --- | --- | --- | --- | --- | --- | --- | --- | --- | --- | --- | --- | --- |
| CC1(C)C(/C=C/C=C/C=C/C=C2\N(CCCCS(=O)(=O)O)c3ccc4ccccc4c3C2(C)C)=[N+](CCCCS(=O)(=O)[O-])c2ccc3ccccc3c21 [ICG alone, indocyanine green] | −0.9 | 33% | 1,188 mm^3 | 50.0% | 1,952 mm^3 | 19% | 12% | 2 to 4 min | ~1 | ~1.1 | no apparent adverse events | 25.0% | 423 mm3 |  |
| p28: peptide derived from Pseudomonas aeruginosa azurin, amino acids 50-77 (SEQ ID NO: 5) |  |  |  |  |  |  |  |  |  |  |  |  |  | no significant adverse effects, toxicity or immunogenicity |
